Assay results reported in patent publication US20230017045A1, “PYRIDINE AND PYRIMIDINE CARBOXYLATE HERBICIDES AND METHODS OF USE THEREOF” (Dow AgroSciences LLC, priority 2017, published 2023).

The compounds below were run on test plant species (assay: Post-emergent herbicidal activity test (greenhouse, foliar spray, visual growth reduction)). Settings: post-emergence, 336 h, ALOMY: blackgrass (Alopecurus myosuroides), 140 g ai/ha, 14 days after application, read-out: Visual Growth Reduction (%) 14 Days After Application, ALOMY.
Format: in vivo
Procedure, shortened: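 Greenhouse plants at first–second true leaf stage sprayed overhead at 187 L/ha with compound in acetone/water/isopropanol/DMSO/crop oil/X-77 carrier; controls received solvent blank. Injury rated visually after 14 d on a 0–100% scale versus untreated and control plants, converted to growth reduction.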

Q: Which pest or weed control at 140 g/ha does the source give for `COc1cc(C(F)(F)F)ccc1-c1nc(C(=O)O)c(Cl)cc1F` [F190, 3-Chloro-5-fluoro-6-(2-methoxy-4-(trifluoromethyl)phenyl) picolinic acid] here?
A: Its pest or weed control at 140 g/ha is 0 to 29%.

Same assay, conditions: post-emergence, 336 h, AMARE: redroot pigweed (Amaranthus retroflexus), 140 g ai/ha, 14 days after application, read-out: Visual Growth Reduction (%) 14 Days After Application, AMARE

Q: `COc1cc(C(F)(F)F)ccc1-c1nc(C(=O)O)c(Cl)cc1F` [F190, 3-Chloro-5-fluoro-6-(2-methoxy-4-(trifluoromethyl)phenyl) picolinic acid] was tested. Which pest or weed control at 140 g/ha did it give?
A: The pest or weed control at 140 g/ha was 95 to 100%.

Same assay, conditions: post-emergence, 336 h, AVEFA: wild oat (Avena fatua), 140 g ai/ha, 14 days after application, read-out: Visual Growth Reduction (%) 14 Days After Application, AVEFA

Q: For `COc1cc(C(F)(F)F)ccc1-c1nc(C(=O)O)c(Cl)cc1F` [F190, 3-Chloro-5-fluoro-6-(2-methoxy-4-(trifluoromethyl)phenyl) picolinic acid], which pest or weed control at 140 g/ha is on record?
A: Its pest or weed control at 140 g/ha is 60 to 74%.

Same assay, conditions: post-emergence, 336 h, CHEAL: lambsquarters (Chenopodium album), 140 g ai/ha, 14 days after application, read-out: Visual Growth Reduction (%) 14 Days After Application, CHEAL

Q: `COc1cc(C(F)(F)F)ccc1-c1nc(C(=O)O)c(Cl)cc1F` [F190, 3-Chloro-5-fluoro-6-(2-methoxy-4-(trifluoromethyl)phenyl) picolinic acid] was tested. Which pest or weed control at 140 g/ha did it give?
A: Its pest or weed control at 140 g/ha is 95 to 100%.

Same assay, conditions: post-emergence, 336 h, CIRAR: canada thistle (Cirsium arvense), 140 g ai/ha, 14 days after application, read-out: Visual Growth Reduction (%) 14 Days After Application, CIRAR

Q: With `COc1cc(C(F)(F)F)ccc1-c1nc(C(=O)O)c(Cl)cc1F` [F190, 3-Chloro-5-fluoro-6-(2-methoxy-4-(trifluoromethyl)phenyl) picolinic acid] as the compound, how does the pest or weed control at 140 g/ha read?
A: Its pest or weed control at 140 g/ha is 85 to 94%.

Same assay, conditions: post-emergence, 336 h, CYPES: yellow nutsedge (Cyperus esculentus), 140 g ai/ha, 14 days after application, read-out: Visual Growth Reduction (%) 14 Days After Application, CYPES

Q: Which pest or weed control at 140 g/ha does the source give for `COc1cc(C(F)(F)F)ccc1-c1nc(C(=O)O)c(Cl)cc1F` [F190, 3-Chloro-5-fluoro-6-(2-methoxy-4-(trifluoromethyl)phenyl) picolinic acid] here?
A: The pest or weed control at 140 g/ha was 0 to 29%.

Same assay, conditions: post-emergence, 336 h, DIGSA: crabgrass (Digitaria sanguinalis), 140 g ai/ha, 14 days after application, read-out: Visual Growth Reduction (%) 14 Days After Application, DIGSA

Q: For `COc1cc(C(F)(F)F)ccc1-c1nc(C(=O)O)c(Cl)cc1F` [F190, 3-Chloro-5-fluoro-6-(2-methoxy-4-(trifluoromethyl)phenyl) picolinic acid], which pest or weed control at 140 g/ha is on record?
A: The pest or weed control at 140 g/ha was 85 to 94%.

Same assay, conditions: post-emergence, 336 h, ECHCG: barnyardgrass (Echinochloa crus-galli), 140 g ai/ha, 14 days after application, read-out: Visual Growth Reduction (%) 14 Days After Application, ECHCG

Q: How did the pest or weed control at 140 g/ha turn out when `COc1cc(C(F)(F)F)ccc1-c1nc(C(=O)O)c(Cl)cc1F` [F190, 3-Chloro-5-fluoro-6-(2-methoxy-4-(trifluoromethyl)phenyl) picolinic acid] was run?
A: Its pest or weed control at 140 g/ha is 95 to 100%.

Same assay, conditions: post-emergence, 336 h, IPOHE: ivy-leaf morning glory (Ipomoea hederacea), 140 g ai/ha, 14 days after application, read-out: Visual Growth Reduction (%) 14 Days After Application, IPOHE

Q: For `COc1cc(C(F)(F)F)ccc1-c1nc(C(=O)O)c(Cl)cc1F` [F190, 3-Chloro-5-fluoro-6-(2-methoxy-4-(trifluoromethyl)phenyl) picolinic acid], which pest or weed control at 140 g/ha is on record?
A: Its pest or weed control at 140 g/ha is 95 to 100%.

Same assay, conditions: post-emergence, 336 h, KCHSC: kochia (Bassia scoparia), 140 g ai/ha, 14 days after application, read-out: Visual Growth Reduction (%) 14 Days After Application, KCHSC

Q: With `COc1cc(C(F)(F)F)ccc1-c1nc(C(=O)O)c(Cl)cc1F` [F190, 3-Chloro-5-fluoro-6-(2-methoxy-4-(trifluoromethyl)phenyl) picolinic acid] as the compound, how does the pest or weed control at 140 g/ha read?
A: The pest or weed control at 140 g/ha was 75 to 84%.

Same assay, conditions: post-emergence, 336 h, ORYSA: rice (Oryza sativa), 140 g ai/ha, 14 days after application, read-out: Visual Growth Reduction (%) 14 Days After Application, ORYSA

Q: With `COc1cc(C(F)(F)F)ccc1-c1nc(C(=O)O)c(Cl)cc1F` [F190, 3-Chloro-5-fluoro-6-(2-methoxy-4-(trifluoromethyl)phenyl) picolinic acid] as the compound, how does the pest or weed control at 140 g/ha read?
A: The pest or weed control at 140 g/ha was 30 to 44%.

Same assay, conditions: post-emergence, 336 h, SETFA: giant foxtail (Setaria faberi), 140 g ai/ha, 14 days after application, read-out: Visual Growth Reduction (%) 14 Days After Application, SETFA

Q: `COc1cc(C(F)(F)F)ccc1-c1nc(C(=O)O)c(Cl)cc1F` [F190, 3-Chloro-5-fluoro-6-(2-methoxy-4-(trifluoromethyl)phenyl) picolinic acid] was tested. Which pest or weed control at 140 g/ha did it give?
A: Its pest or weed control at 140 g/ha is 95 to 100%.

Same assay, conditions: post-emergence, 336 h, SORVU: grain sorghum (Sorghum vulgare), 140 g ai/ha, 14 days after application, read-out: Visual Growth Reduction (%) 14 Days After Application, SORVU

Q: With `COc1cc(C(F)(F)F)ccc1-c1nc(C(=O)O)c(Cl)cc1F` [F190, 3-Chloro-5-fluoro-6-(2-methoxy-4-(trifluoromethyl)phenyl) picolinic acid] as the compound, how does the pest or weed control at 140 g/ha read?
A: The pest or weed control at 140 g/ha was 95 to 100%.

Same assay, conditions: post-emergence, 336 h, STEME: common chickweed (Stellaria media), 140 g ai/ha, 14 days after application, read-out: Visual Growth Reduction (%) 14 Days After Application, STEME

Q: Which pest or weed control at 140 g/ha does the source give for `COc1cc(C(F)(F)F)ccc1-c1nc(C(=O)O)c(Cl)cc1F` [F190, 3-Chloro-5-fluoro-6-(2-methoxy-4-(trifluoromethyl)phenyl) picolinic acid] here?
A: The pest or weed control at 140 g/ha was 0 to 29%.

Same assay, conditions: post-emergence, 336 h, TRZAS: wheat, spring (Triticum aestivum), 140 g ai/ha, 14 days after application, read-out: Visual Growth Reduction (%) 14 Days After Application, TRZAS

Q: Which pest or weed control at 140 g/ha does the source give for `COc1cc(C(F)(F)F)ccc1-c1nc(C(=O)O)c(Cl)cc1F` [F190, 3-Chloro-5-fluoro-6-(2-methoxy-4-(trifluoromethyl)phenyl) picolinic acid] here?
A: The pest or weed control at 140 g/ha was 60 to 74%.
